Values belong to the compound of their own block, whether it stands above or below them. Active and inactive are the calls of the source. The rule behind the calls is not given here.
Assays:
[1] = target: T1, Serine/threonine-protein kinase LATS (Homo sapiens) (UniProt Q9NRM7+O95835); assay: Inhibition of LATS in human limbal epithelial cells assessed as induction of limbal stem cell expansion by measuring expansion factor ratio at 10 uM measured after 2 weeks by p63alpha expression detection based immunohistochemistry relative to control; design: scale not given: the % may be the effect or the level left
T1 sequence (Q9NRM7 whole entry, looked up, one chain of several): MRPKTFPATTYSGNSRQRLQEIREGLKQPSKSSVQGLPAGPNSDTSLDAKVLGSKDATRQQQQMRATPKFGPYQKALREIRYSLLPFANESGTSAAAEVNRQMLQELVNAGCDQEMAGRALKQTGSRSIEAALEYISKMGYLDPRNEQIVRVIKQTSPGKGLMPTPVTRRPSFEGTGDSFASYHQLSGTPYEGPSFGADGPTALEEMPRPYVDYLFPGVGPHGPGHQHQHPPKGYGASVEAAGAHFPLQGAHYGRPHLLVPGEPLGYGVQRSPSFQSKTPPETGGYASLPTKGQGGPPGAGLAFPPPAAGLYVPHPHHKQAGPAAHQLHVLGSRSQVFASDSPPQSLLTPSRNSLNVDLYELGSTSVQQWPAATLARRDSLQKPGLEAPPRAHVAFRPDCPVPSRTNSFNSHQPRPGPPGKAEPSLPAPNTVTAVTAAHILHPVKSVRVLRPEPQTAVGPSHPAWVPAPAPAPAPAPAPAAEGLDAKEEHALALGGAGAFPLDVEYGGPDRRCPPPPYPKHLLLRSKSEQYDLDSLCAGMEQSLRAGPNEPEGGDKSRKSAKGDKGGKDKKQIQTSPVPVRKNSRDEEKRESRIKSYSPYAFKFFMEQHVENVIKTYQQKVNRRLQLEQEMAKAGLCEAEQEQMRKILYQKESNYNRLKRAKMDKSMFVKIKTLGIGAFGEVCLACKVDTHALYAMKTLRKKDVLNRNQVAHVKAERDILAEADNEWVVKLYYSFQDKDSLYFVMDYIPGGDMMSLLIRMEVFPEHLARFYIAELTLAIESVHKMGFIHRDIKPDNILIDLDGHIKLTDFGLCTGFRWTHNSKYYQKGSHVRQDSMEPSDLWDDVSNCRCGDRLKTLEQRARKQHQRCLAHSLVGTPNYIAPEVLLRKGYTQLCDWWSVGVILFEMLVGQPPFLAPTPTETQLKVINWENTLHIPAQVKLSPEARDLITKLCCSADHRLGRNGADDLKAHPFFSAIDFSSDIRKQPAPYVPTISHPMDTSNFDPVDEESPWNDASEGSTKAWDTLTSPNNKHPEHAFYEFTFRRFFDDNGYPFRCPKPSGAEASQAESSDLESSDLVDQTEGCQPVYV

[2] = target: T1, Serine/threonine-protein kinase LATS (Homo sapiens); assay: Inhibition of LATS in human corneal endothelium cells assessed as induction of cell expansion by measuring cell density at 10 uM by Sytox orange dye based epifluorescence microscopy
Oryctolagus cuniculus [3] = species: Oryctolagus cuniculus; assay: (§1) Induction of tissue regeneration in NZA rabbit with limbal stem cell deficiency transplanted with 10 uM compound treated human limbal stem cells assessed as induction of limbal stem cell population expansion by measuring regeneration of keratin-12-positive corneal epithelium using compound attached to contact lens using GelMA polymerization and delivered into corneal surface; format: functional, organism-based
Oryctolagus cuniculus [4] = species: Oryctolagus cuniculus; assay: as §1, with “human mitochondrial protein expression in” for “measuring regeneration of keratin-12-positive”, “epithelium of transplanted eyes” for “epithelium”; format: functional, organism-based
[5] = Total drug level in cell pellets of human limbal stem cells by LC-MS analysis; format: ADME
[6] = Drug level in post wash cell pellets of human limbal stem cells by LC-MS analysis; format: ADME
[7] = target: T2, Serine/threonine-protein kinase LATS1 (Homo sapiens, UniProt O95835); assay: Inhibition of human LATS1 kinase domain (589 to 1130 amino acids) incubated for 30 mins by HTRF assay
T2 sequence (O95835 whole entry): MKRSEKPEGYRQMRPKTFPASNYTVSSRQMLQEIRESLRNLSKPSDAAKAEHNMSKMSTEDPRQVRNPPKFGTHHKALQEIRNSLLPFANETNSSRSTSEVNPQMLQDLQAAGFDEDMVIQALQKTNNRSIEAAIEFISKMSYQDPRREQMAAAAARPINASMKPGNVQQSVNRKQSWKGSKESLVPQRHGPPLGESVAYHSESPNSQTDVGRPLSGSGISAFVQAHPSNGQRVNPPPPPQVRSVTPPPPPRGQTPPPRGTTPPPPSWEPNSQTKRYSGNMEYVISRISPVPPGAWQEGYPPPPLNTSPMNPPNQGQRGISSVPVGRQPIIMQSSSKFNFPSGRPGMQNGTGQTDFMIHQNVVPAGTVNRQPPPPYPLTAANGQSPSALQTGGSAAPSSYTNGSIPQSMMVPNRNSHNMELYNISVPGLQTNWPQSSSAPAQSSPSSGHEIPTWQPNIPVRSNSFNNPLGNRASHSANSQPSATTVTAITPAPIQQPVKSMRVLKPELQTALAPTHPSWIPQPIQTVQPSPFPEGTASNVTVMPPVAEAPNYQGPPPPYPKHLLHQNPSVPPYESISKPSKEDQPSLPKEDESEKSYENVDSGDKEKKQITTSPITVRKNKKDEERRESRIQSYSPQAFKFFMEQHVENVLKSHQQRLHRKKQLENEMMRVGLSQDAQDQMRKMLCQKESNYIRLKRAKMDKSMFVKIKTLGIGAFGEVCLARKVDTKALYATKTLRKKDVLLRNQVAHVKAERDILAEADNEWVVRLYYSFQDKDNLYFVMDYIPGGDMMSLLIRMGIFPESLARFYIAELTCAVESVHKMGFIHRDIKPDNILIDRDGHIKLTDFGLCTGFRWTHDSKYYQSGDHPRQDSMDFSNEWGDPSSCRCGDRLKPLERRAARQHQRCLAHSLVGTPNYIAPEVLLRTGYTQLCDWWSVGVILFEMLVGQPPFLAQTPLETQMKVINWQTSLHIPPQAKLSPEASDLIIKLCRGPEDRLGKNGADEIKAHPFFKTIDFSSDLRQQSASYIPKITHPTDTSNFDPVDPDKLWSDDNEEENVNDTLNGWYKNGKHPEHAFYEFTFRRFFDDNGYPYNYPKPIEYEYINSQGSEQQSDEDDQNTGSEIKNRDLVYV

[8] = Total drug level in cell pellets of human corneal endothelium cells by LC-MS analysis; format: ADME
[9] = Drug level in cell pellets of human corneal endothelium cells by LC-MS analysis; format: ADME
Mus musculus [10] = assay: Inhibition of LATS in C57BL/6 mouse with full-thickness excisional wounds assessed as up-regulation of YAP target gene Cyr61 expression at 0.2 to 2 mg/ml administered topically by RT-PCR analysis; format: functional, organism-based
Mus musculus [11] = assay: Induction of basal skin cell proliferation in C57BL/6 mouse at 250 ug administered topically twice per day by micrography; format: functional, organism-based
Mus musculus [12] = assay: Induction of epidermal thickness in C57BL/6 mouse at 250 ug administered topically twice per day by micrography; format: functional, organism-based
[13] = target: T1, Serine/threonine-protein kinase LATS (Homo sapiens); assay: Inhibition of LATS in human limbal epithelial cells assessed as increase in YAP level at 10 uM incubated for 24 hrs by immunostaining based assay; conditions: Epithelial cell
[14] = target: T1, Serine/threonine-protein kinase LATS (Homo sapiens); assay: Inhibition of LATS in human limbal epithelial cells assessed as reduction in YAP phosphorylation level at 10 uM incubated for 1 hr by Western blot analysis; format: cell-based; conditions: Epithelial cell
[15] = target: T1, Serine/threonine-protein kinase LATS (Homo sapiens); assay: Inhibition of LATS in human limbal epithelial cells assessed as induction of limbal stem cell expansion by measuring p63alpha expression at 10 uM measured after 2 weeks by immunohistochemistry; format: cell-based
[16] = target: T1, Serine/threonine-protein kinase LATS (Homo sapiens); assay: Inhibition of LATS in human limbal epithelial cells assessed as induction of limbal stem cell expansion marker expression by measuring deltaN-p63-alphabetagamma protein expression at 10 uM incubated for 8 to 10 days by immunohistochemistry; format: cell-based
[17] = target: T1, Serine/threonine-protein kinase LATS (Homo sapiens); assay: Inhibition of LATS in human limbal epithelial cells assessed as induction of limbal stem cell expansion marker expression by measuring ABCG2 protein expression at 10 uM incubated for 8 to 10 days by immunohistochemistry; format: cell-based
[18] = target: T1, Serine/threonine-protein kinase LATS (Homo sapiens); assay: Inhibition of LATS in human limbal epithelial cells assessed as induction of limbal stem cell expansion marker expression by measuring C/EBPdelta protein expression at 10 uM incubated for 8 to 10 days by immunohistochemistry; format: cell-based
[19] = target: T1, Serine/threonine-protein kinase LATS (Homo sapiens); assay: Inhibition of LATS in human corneal endothelium cells assessed as increase in YAP level at 10 uM incubated for 24 hrs by immunohistochemistry
[20] = target: T1, Serine/threonine-protein kinase LATS (Homo sapiens); assay: Inhibition of LATS in human corneal endothelium cells assessed as reduction in YAP phosphorylation at 10 uM incubated for 1 hr by Western blot analysis
[21] = target: T1, Serine/threonine-protein kinase LATS (Homo sapiens); assay: Inhibition of LATS in human corneal endothelium cells assessed as induction of cell proliferation measured every 3 hrs for 10 days

- Activity [1]: 57 to 97%
Structure (SMILES): c1cc(-c2nc(NC3CCCC3)c3ccncc3n2)ccn1
- Activity [2]: 1700 /mm2

Structure (SMILES): CC(C)(O)COCC(C)(C)Nc1nc(-c2ccncc2)nc2cnccc12
- Activity (Oryctolagus cuniculus [3]): Active
- Activity (Oryctolagus cuniculus [4]): Active
- Drug uptake [5]: 178 pg
- Drug uptake [6]: 7.32 to 14.4 nM

- IC50 [7]: 1 nM
Structure (SMILES): CN(C)CCC(C)(C)Nc1nc(-c2ccncc2)nc2cnccc12

- IC50 [7]: 10 nM
Structure (SMILES): Cc1n[nH]c(C)c1-c1nc(NC(C)(C)C(F)(F)F)c2ccncc2n1

- Activity [1]: 57 to 97%
Structure (SMILES): FC(F)(F)C1(Nc2nc(-c3ccncc3)nc3cnccc23)CCC1
- Activity [2]: 3300 /mm2

- Drug uptake [5]: 340 pg
- Drug uptake [8]: 0.75 pg
- Drug uptake [9]: 0.004 to 0.071 nM
Structure (SMILES): C[C@H](N(C)c1nc(-c2ccncc2)nc2cnccc12)C(F)(F)F

- Activity [1]: 57 to 97%
Structure (SMILES): CC(C)(Nc1nc(-c2ccncc2Cl)nc2cnccc12)C(F)(F)F
- Activity [2]: 1180 /mm2

- Activity [1]: 57 to 97%
Structure (SMILES): CC(C)(CO)Nc1nc(-c2ccncc2)nc2cnccc12
- Activity [2]: 2500 /mm2

- Activity [1]: 57 to 97%
Structure (SMILES): O[C@H]1CCC[C@@H]1Nc1nc(-c2ccncc2)nc2cnccc12
- Activity [2]: 25 /mm2

- Activity [1]: 57 to 97%
Structure (SMILES): FC(F)(F)C1CN(c2nc(-c3ccncc3)nc3cnccc23)CCN1 (stereo unspecified)
- Activity [2]: 2070 /mm2

- inhibition [13]: Active
- inhibition [14]: Active
- inhibition [15]: Active
- Activity [1]: 57 to 97%
- inhibition [16]: Active
- inhibition [17]: Active
- inhibition [18]: Active
- inhibition [19]: Active
- inhibition [20]: Active
- inhibition [21]: Active
Structure (SMILES): Cc1n[nH]cc1-c1nc(NC2(C)CC2)c2ccncc2n1
- inhibition (Mus musculus [10]): Dose-dependent effect
- Activity (Mus musculus [11]): Active
- Activity (Mus musculus [12]): Active
- Activity [2]: 2030 /mm2

- IC50 [7]: > 2500 nM
Structure (SMILES): O=C(O)CCCNc1nc(-c2ccncc2)nc2cnccc12
